# Reference: patent US9625448B2, “Double caged GABA compounds, bis-CNB-GABA” (The Trustees of Princeton University, priority 2014, dated 2017)
# “Also recorded” adds a separate entry of the source. Read-outs that look alike come from different tables or passages of the source.
# Key:
# glutamate receptors = test: Spontaneous EPSCs / miniature AMPA currents recorded from cerebellar interneurons; format: cell-based
# Protocol: Bis-CNB-GABA was applied in vitro. Currents were recorded from cerebellar interneurons. […] FIG. 35 (right) illustrates response traces before and after application of bis-CNB-GABA. FIG. 35 (left) illustrates summary of data. FIG. 36 illustrates effects of 1 mM bis-CNB-GABA on spontaneously evoked miniature glutamate and miniature GABA currents in cerebellar interneuron.
# FIG. 37 illustrates effects of uncaging. […] Referring to FIG. 37 (bottom), the graph illustrates uncaging at 365 nm with LED in the presence of 3 mM gabazine.
# As a third and final test of the synaptic effects of bis-CNB-GABA, we measured its impact on spontaneous glutamatergic postsynaptic currents (EPSCs) recorded from MLIs. Referring to FIGS. 43B and 43E, with this configuration, no change in the amplitude of the EPSCs was observed (FIG. 43B, bottom) even with concentrations of bis-CNB-GABA up to 2 mM (FIG. 43E, p=0.4, Spearman rank order correlation test).
# [1] = Quantum yield of photolysis; format: physicochemical; settings: 254 nm light
# Protocol: Quantum yield was a more difficult characteristic to determine. Most published routes of determining quantum yield rely on exposing the compound to a known amount of light and calculating the percent conversion of caged compound to substrate. However, this often requires laser sources and equipment beyond the scope of available facilities. Therefore, it was necessary to develop a way to assess quantum yield with a more practical method. As an alternative, quantum yield was determined by exposing a compound to light alongside a caged compound of known quantum yield. The percent conversion to product of both can be determined, and quantum yield of the unknown caged compound can be calculated using the known quantum yield of the standard.
# This method was employed using single-caged CNB-GABA, with a quantum yield of 0.14 (Matsuzaki et al., 2010 Nature Chemical Biology, 6, 255-257, which is incorporated herein by reference as if fully set forth). Referring to this figure, GABA backbone is shown in light gray.
# Equimolar amounts of single-caged GABA and bis-CNB-GABA were stirred in separate cuvettes in pH 7.0 phosphate buffer solution and exposed to 254 nm light for 16.5 minutes. An internal standard (1,2-dimethoxyethane) of known amount was then added to each solution, and the moles of GABA released from each compound was determined by ^1HNMR. The peaks corresponding to GABA as well as those from the internal standard were then identified and integrated. From this, moles of GABA and percent conversion were calculated for both bis-CNB-GABA and mono-CNB-GABA. FIG. 34 illustrates NMR data used to determine quantum yield. Referring to FIG. 34, the […] on the top illustrates bis-CNB-GABA before light exposure. Arrows denote methylene peaks of bis-CNB-GABA. Integrated peaks in each spectrum correspond to di-methoxyethane, used as an internal standard. […]
# Quantum yield was determined by uncaging bis-CNB-GABA alongside a caged compound of known quantum yield (mono-CNB-GABA, QY=0.16, from Invitrogen). […]
# GABAA receptors = settings: cited from earlier work
# [2] = Gee et al., 1994; cited from earlier work
SMILES,"effect on spontaneously-evoked AMPA currents (glutamate receptors; 1 mM (FIG. 36), FIG. 39)",effect on amplitude of miniature AMPA currents (glutamate receptors; 1.223 mM),effect on miniature AMPA currents (glutamate receptors; 1.233 mM and 1.0 mM),"effect on spontaneous EPSC size / amplitude (glutamate receptors; all concentrations tested, up to 2 mM)","quantum yield ([1]; pH 7.0 phosphate buffer, relative to CNB-GABA (0.14))",quantum yield at the N-position ([1]; relative to mono-O-CNB-GABA),quantum yield at the O-position ([1]; relative to mono-O-CNB-GABA),effect on GABA-evoked currents (GABAA receptors; 200 μM),"IC50 (GABAA receptors; Molnár & Nadler, 2000, read-out: IC50, suppression of GABA-evoked IPSC currents)","IC50 (GABAA receptors; Table 2, O-CNB-GABA in hippocampal dentate neurons, read-out: IC50 in blocking synaptic GABAA currents)",activity at GABA receptors before photolysis (GABAA receptors),solubility [2]
"O=C(CCCNC(C(=O)O)c1ccccc1[N+](=O)[O-])OC(C(=O)O)c1ccccc1[N+](=O)[O-] (stereo not drawn) [bis-CNB-GABA, 2-((4-(Carboxy(2-nitrophenyl)methoxy)-4-oxobutyl)amino)-2-(2-nitrophenyl)acetic acid]",no significant effect,no significant effect,no significant effect,unaffected; also recorded: no change,0.07,0.032,0.15,,,,,
NCCCC(=O)OC(C(=O)O)c1ccccc1[N+](=O)[O-] (stereo not drawn) [mono-CNB-GABA],,,,,,,,reversibly eliminated,28 µM,28 µM,antagonize GABA receptors; also recorded: antagonist of GABAA receptors,over 50 mM
